Series [1] can be described thus: Reversal of P-gp-mediated multidrug resistance in human KBV cells assessed as potentiation of paclitaxel-induced cytotoxicity by measuring paclitaxel IC50 at 10 uM after 72 hrs by MTT assay (Rvb = 1353.98 +/- 303.33 nM).
Series [2] can be described thus: Reversal of P-gp-mediated multidrug resistance in human KBV cells assessed as potentiation of paclitaxel-induced cytotoxicity by measuring paclitaxel IC50 at 5 uM after 72 hrs by MTT assay (Rvb = 1353.98 +/- 303.33 nM).

The structures appear in SMILES notation.

On to `CC(C)(O)[C@H]1CC[C@@](C)([C@H]2CC[C@]3(C)[C@@H]2[C@H](O)C[C@@H]2[C@@]4(C)CC[C@H](N)C(C)(C)[C@@H]4CC[C@]23C)O1`, for which the 50% inhibitory concentration (IC50) in series [1] stood at 48 nM; in series [2], 135 nM.

For the compound `CC(C)(C)OC(=O)NCCCCCC(=O)N[C@H]1CC[C@]2(C)[C@H]3C[C@@H](O)[C@@H]4[C@@H]([C@]5(C)CC[C@H](C(C)(C)O)O5)CC[C@@]4(C)[C@]3(C)CC[C@H]2C1(C)C`, the figures for the half-inhibitory concentration (IC50) in series [1] and in series [2] were 28 nM and 48 nM, respectively.

The record behind these values is BindingDB's records for doi:10.1016/j.ejmech.2018.10.038 (Universities of Shandong, 2019).
